{
  "source": "patent US10792249B2",
  "about": "“High drug loading pharmaceutical compositions” (AcrysPharm LLC, priority 2017, dated 2020)",
  "experiment": "Preliminary screening of ibuprofen solubility in HPMC",
  "format": "physicochemical",
  "settings": "0.5 part ibuprofen in 1 part HPMC w/w",
  "source_text": "As listed in Table 4, […] process, which is a common procedure to generate glass-solution solid dispersion (Newman, ‘Pharmaceutical Amorphous Solid Dispersions’, Wiley (2015)). […] Therefore, these dispersions exceed the solubility limit of ibuprofen in HPMC.",
  "data": [
    {"molecule": "CC(C)Cc1ccc(C(C)C(=O)O)cc1", "note": "(racemic) [ibuprofen]", "values": [
      {"measurement": "solubility of ibuprofen in HPMC", "value": "about 50 wt % of HPMC"}
    ]}
  ]
}
